These results are taken from US20190290675A1, “GLYCAN POLYMERS AND RELATED METHODS THEREOF” (priority 2016, published 2019).

What all share (assay): single strain growth assay, enzymatically synthesized glycans and parent sugars
Assay type in all cases: cell-based
Holding throughout (conditions): 0.5% w/v, 37° C., 18-48 hours, anaerobic; OD600 blanked against no glycan or sugar

For assay [1], the system named is Dorea longicatena DSM 13814 “DLO.76”.
Method: (§1) An in vitro assay was performed to assess the ability of various bacterial strains, including commensals and pathogens of the gastrointestinal tract, to utilize enzymatically synthesized glycans (i.e., glycan polymers) and the sugars from which they were derived as growth substrates. The assay was designed to determine if enzymatically synthesized glycans differ from the sugars from which they are derived in how well they support growth of potentially beneficial or harmful bacterial members of the human microbiome. Bacterial strains were handled at all steps in an anaerobic chamber (AS-580, Anaerobe Systems) featuring a palladium catalyst. The chamber was initially made anaerobic by purging with an anaerobic gas mixture of 5% hydrogen, 5% carbon dioxide and 90% nitrogen and subsequently maintained in an anaerobic state using this same anaerobic gas mixture. Anaerobicity of the chamber was confirmed daily using Oxoid anaerobic indicator strips that change color in the presence of oxygen. All culture media, assay plates, other reagents and plastic consumables were pre-reduced in the anaerobic chamber for at least 24-48 hours prior to contact with bacteria. […] Bacterial isolates were obtained from the American Type Culture Collection (ATCC) and Leibniz Institute DSMZ-German Institute of Microorganisms and Cell Cultures (DSMZ). […] Inocula were prepared by determining the optical density of each culture at 600 nM (OD600) in a Costar 3370 polystyrene 96-well flat-bottom assay plate using a Biotek Synergy 2 plate reader with Gen5 2.0 All-In-One Microplate Reader Software according to manufacturer's protocol, and diluting the cells to OD600 0.01 final in defined and semi-defined media that were prepared without sugars. […]
The subject of assay [2] is Dorea formicigenerans ATCC 27755 “DFO.36”.
Method: as §1
The subject of assay [3] is Parabacteroides distasonis ATCC 8503 “PDI.6”.
Method: as §1
Assay [4] concerns Bacteroides thetaiotaomicron ATCC 29741 “BTH.8”.
Method: as §1
Assay [5] has as its system Blautia hansenii ATCC 27752 “BHA.20”.
Method: An in vitro assay was performed to assess the ability of various bacterial strains, including commensals and pathogens of the gastrointestinal tract, to utilize enzymatically synthesized glycans (i.e., glycan polymers) and the sugars from which they were derived as growth substrates. The assay was designed to determine if enzymatically synthesized glycans differ from the sugars from which they are derived in how well they support growth of potentially beneficial or harmful bacterial members of the human microbiome. Bacterial strains were handled at all steps in an anaerobic chamber (AS-580, Anaerobe Systems) featuring a palladium catalyst. The chamber was initially made anaerobic by purging with an anaerobic gas mixture of 5% hydrogen, 5% carbon dioxide and 90% nitrogen and subsequently maintained in an anaerobic state using this same anaerobic gas mixture. Anaerobicity of the chamber was confirmed daily using Oxoid anaerobic indicator strips that change color in the presence of oxygen. All culture media, assay plates, other reagents and plastic consumables were pre-reduced in the anaerobic chamber for at least 24-48 hours prior to contact with bacteria. […] Inocula were prepared by determining the optical density of each culture at 600 nM (OD600) in a Costar 3370 polystyrene 96-well flat-bottom assay plate using a Biotek Synergy 2 plate reader with Gen5 2.0 All-In-One Microplate Reader Software according to manufacturer's protocol, and diluting the cells to OD600 0.01 final in defined and semi-defined media that were prepared without sugars. […]
Assay [6] concerns Clostridium scindens ATCC 35704 “CSC.32”.
Method: as §1

The structures appear in SMILES notation.

As to `OC[C@H]1O[C@@](CO)(O[C@H]2O[C@H](CO)[C@@H](O)[C@H](O)[C@H]2O)[C@@H](O)[C@@H]1O` [sucrose], the “Growth, DLO.76” value in assay [1] was “+++ (>0.7)”. For the same compound, the “Growth, DFO.36” value in assay [2] is reported as “− (<0.1)”. Also, in assay [3], the “Growth, PDI.6” value was “++ (0.3-0.7)”. Besides, in assay [4], the “Growth, BTH.8” value is reported as “+++ (>0.7)”. For the same compound, the “Growth, BHA.20” value in assay [5] was “− (<0.1)”. In addition, the “Growth, CSC.32” value in assay [6] is on record as “− (<0.1)”.
For the compound `OC[C@H]1O[C@@H](O[C@@H]2[C@@H](CO)OC(O)(CO)[C@H]2O)[C@H](O)[C@@H](O)[C@H]1O` (mixture of isomers) [lactulose], the “Growth, DLO.76” value in assay [1] is given as “− (<0.1)”. Further, the “Growth, DFO.36” value in assay [2] is given as “− (<0.1)”. For the same compound, the “Growth, PDI.6” value in assay [3] is listed as “++ (0.3-0.7)”. Moreover, in assay [4], the “Growth, BTH.8” value is “+ (0.1-0.3)”. Besides, the “Growth, BHA.20” value in assay [5] is on record as “+++ (>0.7)”. The “Growth, CSC.32” value in assay [6] was “− (<0.1)”.
With `OC[C@H]1O[C@H](OC[C@H]2O[C@H](O[C@]3(CO)O[C@H](CO)[C@@H](O)[C@@H]3O)[C@H](O)[C@@H](O)[C@@H]2O)[C@H](O)[C@@H](O)[C@H]1O` [raffinose], in assay [1], the “Growth, DLO.76” value is listed as “− (<0.1)”. For the same compound, the “Growth, DFO.36” value in assay [2] is given as “− (<0.1)”. Further, in assay [3], the “Growth, PDI.6” value is “+++ (>0.7)”. Moreover, the “Growth, BTH.8” value in assay [4] is “− (<0.1)”. For the same compound, in assay [5], the “Growth, BHA.20” value is “++ (0.3-0.7)”. Besides, the “Growth, CSC.32” value in assay [6] was “− (<0.1)”.
